Measurements taken from patent US8735375B2, “Therapeutic compositions” (Leo Laboratories Limited, priority 2005, dated 2014).

Tests used:
Type in all cases: physicochemical
[1] = Preliminary stability of I3A in receiver fluid 20% v/v ethanol/citrate buffer (pH 3.0); details: 37° C., after 18 h
Experimental: The receiver fluid employed to try and maintain sink conditions was 20% v/v ethanol/citrate buffer (pH 3.0) and this was incorporated into the Franz cell and stirred constantly with a magnetic stirrer. Preliminary stability studies were conducted on I3A in 20% v/v ethanol/citrate buffer (pH 3.0) at 37° C. over ca. 18 h. […] For the purpose of the Franz cell study this was considered acceptable.

[2] = Stability of I3A 'b' in isopropanol gel (pH 6.5); details: 0.02% (w/w) I3A 'b' in isopropanol gel pH 6.5; 2-8° C., RTP and 40° C.
Experimental: The stability of I3A ‘b’ in an isopropanol gel preparation (pH 6.5) was investigated. The protocol was as follows:
The Carbopol® was dispersed in the water and glycerin and dissolved by heating to 40° C. in a water bath. The propyl alcohol was then added to this solution. The cyclomethicone was dissolved in the isopropyl alcohol and this second solution was mixed well with the Carbopol® solution, and then water was added, with stirring, to 100%. The pH of the gel was brought to 6.5 with the dropwise addition of ethanolamine. The isopropanol gel was stored at 2-8° C. until use.
To investigate the stability of I3A ‘b’ in isopropanol gel (pH 6.5), a 0.02% (w/w) I3A ‘b’/Visopropanol gel formulation was prepared and divided into three samples for storage at 2-8° C., RTP and 40° C. At regular time points the samples were analysed in duplicate for the stability of I3A ‘b’ in terms of the formation of isoform ‘a’, with the results given in FIG. 2.

[3] = Kinetic solubility of I3A in 20% v/v ethanol/citrate buffer (pH 3.0); details: aqueous with cosolvent or surfactant or cyclodextrin, kinetic from dmso stock, 25° C.
[4] = Stability of I3A isoforms in the assay solvent systems over 72 h
Experimental: The stability of […] isoforms 'a', 'b' and 'c' in the three sample systems over 72 h (equivalent to the maximum possible length of time the samples might be held in the autosampler during a long HPLC analytical run) was confirmed as follows. Standards of the three isoforms of […] The standards were then each divided into three equal volumes and placed at 2-8° C., room temperature and 40° C. for 72 h and were then again analysed by HPLC.

[5] = Dilution of I3A with normal saline (isoform conversion)
Excerpt: Oils may also be used in the present invention. The use of an emulsion based intralesional formulation has been reported for the treatment of psoriasis (Ho et al., 1990). Prior to administration, a vehicle, such as polyoxyethylated castor oil, is normally diluted with saline to form the emulsion. […] This conversion may be minimised if the administration time of the formulation is short.

[6] = Stability study of I3A in solvents at 4-8° C.; details: 14 days
Experimental: The stability of I3A in various solvents at 4-8° C. was investigated. A stock solution of 1.26 mg of I3A was weighed out and dissolved in 2 ml acetone. This stock solution was used to prepare the stability samples as follows:
Aliquots of 100 μl of stock solution were transferred to individual glass HPLC vials via a Hamilton syringe, with careful rinsing and drying of the syringe between each sample. The samples were dried down by air jet and then 0.5 ml of the appropriate test solvent system added. The solvent systems were tested in triplicate and are listed below:
Blank samples were also prepared in triplicate using 100 μl of acetone in place of the stock solution. The blank samples were then dried down and 0.5 ml acetone added to each vial. The vials were all crimped, sealed with Parafilm® and placed at 4-8° C. for the duration of the stability study. HPLC analysis was performed on the samples on Day 0, Day 1, Day 5 and Day 14 of the stability study. The samples were prepared for the HPLC assay as described below:
The stability samples were removed from 4-8° C. and left at ambient temperature for 30 mins. Aliquots of 100 μl were transferred to fresh glass HPLC vials using a Hamilton syringe, with careful, rinsing and drying of the syringe between each sample. To facilitate drying of the samples, 0.5 ml of acetone was added to each vial and then the samples were dried down by air jet. The samples were reconstituted with 1 ml of acetonitrile and analysed by HPLC using the chromatographic conditions specified above.

[7] = Stability of I3A at various pH's (buffers); details: room temperature
Experimental: The stability of I3A was investigated at pH 4.5 in two buffers i.e. monopotassium phosphate/disodium phosphate and acetic acid/ammonium acetate for 24 h at room temperature.

[8] = Acetonitrile/Citrate buffer (pH 3), 72 h 2-8° C.
[9] = Acetonitrile/Citrate buffer (pH 3), 72 h 40° C.
[10] = Acetonitrile/Citrate buffer (pH 3), 72 h RTP
[11] = Acetonitrile/Citrate buffer (pH 3), Time 0 h
[12] = Acetonitrile/Sodium acetate buffer (pH 4.5), 72 h 2-8° C.
[13] = Acetonitrile/Sodium acetate buffer (pH 4.5), 72 h 40° C.
[14] = Acetonitrile/Sodium acetate buffer (pH 4.5), 72 h RTP
[15] = Acetonitrile/Sodium acetate buffer (pH 4.5), Time 0 h

With `C/C=C(/C)C(=O)O[C@H]1C(C)=C[C@]23C(=O)[C@H](C=C(CO)[C@@H](O)[C@]12O)[C@H]1[C@@H](C[C@H]3C)C1(C)C` [Formulation I3A, ingenol-3-angelate] the “percentage peak area increase in isoform ‘a’” value [1] was 0.26%, the “stability in terms of the formation of isoform 'a'” value [2] was “rearranges to isoform ‘a’ and subsequently isoform ‘c’” and the solubility kinetic [3] was 509.7 ± 3 µg/mL. For the same compound, the “% ‘a’” value ([4]; Acetonitrile, 72 h 2-8° C.) was 3.94%, the “% ‘b’” value ([4]; Acetonitrile, 72 h 2-8° C.) was 95.45% and the “% ‘c’” value ([4]; Acetonitrile, 72 h 2-8° C.) was 0%. For the same compound, the “% ‘a’” value ([4]; Acetonitrile, 72 h 40° C.) was 15.52%, the “% ‘b’” value ([4]; Acetonitrile, 72 h 40° C.) was 83.35% and the “% ‘c’” value ([4]; Acetonitrile, 72 h 40° C.) was 0%. The “% ‘a’” value ([4]; Acetonitrile, 72 h RTP) was 5.83%, the “% ‘b’” value ([4]; Acetonitrile, 72 h RTP) was 93.51% and the “% ‘c’” value ([4]; Acetonitrile, 72 h RTP) was 0%. The “% ‘a’” value ([4]; Acetonitrile, Time 0 h) was 0.39%, the “% ‘b’” value ([4]; Acetonitrile, Time 0 h) was 99.27% and the “% ‘c’” value ([4]; Acetonitrile, Time 0 h) was 0%. For the same compound, the “% ‘a’” value [4, 8] was 0.18%, the “% ‘b’” value [4, 8] was 99.49% and the “% ‘c’” value [4, 8] was 0%. The “% ‘a’” value [4, 9] was 0.34%, the “% ‘b’” value [4, 9] was 99.63% and the “% ‘c’” value [4, 9] was 0%. The “% ‘a’” value [4, 10] was 0.13%, the “% ‘b’” value [4, 10] was 99.76% and the “% ‘c’” value [4, 10] was 0%. The “% ‘a’” value [4, 11] was 0.13%, the “% ‘b’” value [4, 11] was 99.64% and the “% ‘c’” value [4, 11] was 0%. For the same compound, the “% ‘a’” value [4, 12] was 0.63%, the “% ‘b’” value [4, 12] was 99.02% and the “% ‘c’” value [4, 12] was 0%. The “% ‘a’” value [4, 13] was 6.35%, the “% ‘b’” value [4, 13] was 93.13% and the “% ‘c’” value [4, 13] was 0%. For the same compound, the “% ‘a’” value [4, 14] was 1.16%, the “% ‘b’” value [4, 14] was 98.41% and the “% ‘c’” value [4, 14] was 0%. The “% ‘a’” value [4, 15] was 0.34%, the “% ‘b’” value [4, 15] was 98.88% and the “% ‘c’” value [4, 15] was 0.01%. The “conversion of isoform 'b' to 'a'” value [5] was “increases the conversion of isoform ‘b’ to ‘a’”, the “stability (predominance of peak 'b')” value ([6]; 100% v/v acetone) was “stable” and the “stability (predominance of peak 'b')” value ([6]; 100% v/v acetonitrile) was “stable”. The isomer formation ([6]; protic solvents (methanol, methanol/water, water)) was “formation of isomer ‘a’ and then isomer ‘c’ increases rapidly”, the “stability (predominance of isoform 'b')” value ([7]; pH 4.5, monopotassium phosphate/disodium phosphate and acetic acid/ammonium acetate buffers, 24 h) was “stable” and the stability ([7]; pH 5.5, 6.5 and 7.0, 14 days) was “decrease with an increase in pH”.
